{"source": "the NIST ThermoML archive (doi:10.1016/j.fluid.2015.08.008)", "key": {"[1]": {"test": "Boiling temperature at pressure P", "settings": "Liquid, distillation unit - dew point temperature"}, "[2]": {"settings": "101.33 kPa, Liquid, Vibrating tube method"}}, "note": "± gives the expanded uncertainty stated by the source."}
{"molecule": "C1CCC2=NCCCN2CC1", "note": "[1,8-diaza-7-bicyclo[5.4.0]undecene]", "values": [{"measurement": "Boiling temperature at pressure P", "setting": "[1]; 0.51 kPa", "result": "102.62 ± 25", "unit": "°C"}, {"measurement": "Boiling temperature at pressure P", "setting": "[1]; 0.71 kPa", "result": "110.30 ± 20", "unit": "°C"}, {"measurement": "Boiling temperature at pressure P", "setting": "[1]; 1.01 kPa", "result": "116.2 ± 16", "unit": "°C"}, {"measurement": "Boiling temperature at pressure P", "setting": "[1]; 1.31 kPa", "result": "122.00 ± 14", "unit": "°C"}, {"measurement": "Boiling temperature at pressure P", "setting": "[1]; 1.51 kPa", "result": "124.60 ± 19", "unit": "°C"}, {"measurement": "Boiling temperature at pressure P", "setting": "[1]; 1.71 kPa", "result": "127.70 ± 14", "unit": "°C"}, {"measurement": "Boiling temperature at pressure P", "setting": "[1]; 2.01 kPa", "result": "130.80 ± 13", "unit": "°C"}, {"measurement": "Boiling temperature at pressure P", "setting": "[1]; 2.31 kPa", "result": "133.90 ± 12", "unit": "°C"}, {"measurement": "Boiling temperature at pressure P", "setting": "[1]; 2.51 kPa", "result": "136 ± 11", "unit": "°C"}, {"measurement": "Boiling temperature at pressure P", "setting": "[1]; 3.01 kPa", "result": "139.72 ± 9.8", "unit": "°C"}, {"measurement": "Boiling temperature at pressure P", "setting": "[1]; 3.31 kPa", "result": "143.00 ± 9.2", "unit": "°C"}, {"measurement": "Boiling temperature at pressure P", "setting": "[1]; 3.51 kPa", "result": "143.80 ± 8.8", "unit": "°C"}, {"measurement": "Boiling temperature at pressure P", "setting": "[1]; 4.01 kPa", "result": "147.87 ± 8.2", "unit": "°C"}, {"measurement": "Boiling temperature at pressure P", "setting": "[1]; 4.21 kPa", "result": "149.07 ± 6.8", "unit": "°C"}, {"measurement": "Boiling temperature at pressure P", "setting": "[1]; 4.51 kPa", "result": "150.98 ± 6.4", "unit": "°C"}, {"measurement": "Boiling temperature at pressure P", "setting": "[1]; 5.01 kPa", "result": "153.77 ± 5.8", "unit": "°C"}, {"measurement": "Boiling temperature at pressure P", "setting": "[1]; 5.31 kPa", "result": "154.70 ± 5.8", "unit": "°C"}, {"measurement": "Boiling temperature at pressure P", "setting": "[1]; 6.31 kPa", "result": "159.30 ± 5.7", "unit": "°C"}, {"measurement": "Boiling temperature at pressure P", "setting": "[1]; 7.31 kPa", "result": "164.1 ± 5.9", "unit": "°C"}]}
{"molecule": "C1CN=C2CCCN2C1", "note": "[1,5-diazabicyclo[4.3.0]non-5-ene]", "values": [{"measurement": "Boiling temperature at pressure P", "setting": "[1]; 0.71 kPa", "result": "85.69 ± 20", "unit": "°C"}, {"measurement": "Boiling temperature at pressure P", "setting": "[1]; 0.91 kPa", "result": "90.86 ± 18", "unit": "°C"}, {"measurement": "Boiling temperature at pressure P", "setting": "[1]; 0.92 kPa", "result": "91.46 ± 17", "unit": "°C"}, {"measurement": "Boiling temperature at pressure P", "setting": "[1]; 1.39 kPa", "result": "98.20 ± 13", "unit": "°C"}, {"measurement": "Boiling temperature at pressure P", "setting": "[1]; 1.41 kPa", "result": "98.90 ± 12", "unit": "°C"}, {"measurement": "Boiling temperature at pressure P", "setting": "[1]; 1.87 kPa", "result": "105.99 ± 14", "unit": "°C"}, {"measurement": "Boiling temperature at pressure P", "setting": "[1]; 2.81 kPa", "result": "114.1 ± 8.1", "unit": "°C"}, {"measurement": "Boiling temperature at pressure P", "setting": "[1]; 2.86 kPa", "result": "114.66 ± 8.1", "unit": "°C"}, {"measurement": "Boiling temperature at pressure P", "setting": "[1]; 3.37 kPa", "result": "117.81 ± 7.5", "unit": "°C"}, {"measurement": "Boiling temperature at pressure P", "setting": "[1]; 3.88 kPa", "result": "120.18 ± 6.4", "unit": "°C"}, {"measurement": "Boiling temperature at pressure P", "setting": "[1]; 5.11 kPa", "result": "127.00 ± 6.2", "unit": "°C"}, {"measurement": "Boiling temperature at pressure P", "setting": "[1]; 5.53 kPa", "result": "128.91 ± 5.3", "unit": "°C"}, {"measurement": "Boiling temperature at pressure P", "setting": "[1]; 6.11 kPa", "result": "131.70 ± 4.6", "unit": "°C"}, {"measurement": "Boiling temperature at pressure P", "setting": "[1]; 7.15 kPa", "result": "134.78 ± 4.5", "unit": "°C"}, {"measurement": "Boiling temperature at pressure P", "setting": "[1]; 8.11 kPa", "result": "139.00 ± 4.2", "unit": "°C"}, {"measurement": "Boiling temperature at pressure P", "setting": "[1]; 9.4 kPa", "result": "142.40 ± 3.5", "unit": "°C"}, {"measurement": "Boiling temperature at pressure P", "setting": "[1]; 10.12 kPa", "result": "144.50 ± 3.5", "unit": "°C"}, {"measurement": "Boiling temperature at pressure P", "setting": "[1]; 12.14 kPa", "result": "149.60 ± 3.6", "unit": "°C"}, {"measurement": "mass density", "setting": "[2]; 293.15 K", "result": "1037.59 ± 0.065", "unit": "kg/m3"}, {"measurement": "mass density", "setting": "[2]; 298.15 K", "result": "1033.58 ± 0.063", "unit": "kg/m3"}, {"measurement": "mass density", "setting": "[2]; 303.15 K", "result": "1029.56 ± 0.061", "unit": "kg/m3"}, {"measurement": "mass density", "setting": "[2]; 308.15 K", "result": "1025.52 ± 0.06", "unit": "kg/m3"}, {"measurement": "mass density", "setting": "[2]; 313.15 K", "result": "1021.49 ± 0.058", "unit": "kg/m3"}, {"measurement": "mass density", "setting": "[2]; 318.15 K", "result": "1017.4 ± 0.056", "unit": "kg/m3"}, {"measurement": "mass density", "setting": "[2]; 323.15 K", "result": "1013.33 ± 0.054", "unit": "kg/m3"}]}
